Laboratory results taken from patent US8592403B2, “Diazepine and diazocane compounds as MC4 agonists” (Pfizer Limited, priority 2008, dated 2013).

Tests used:
[1] = molecular target: MC4 receptor (Homo sapiens, UniProt P32245); assay: MC4 EC50 functional potency (protocol E of US2005/0176772 / WO 2005/077935); type: cell-based
Method: The compounds of formula (I) of the present invention have utility as MCR4 agonists in the treatment of various disease states.
MC5 and MC4 EC50 activity was determined as described by assay protocols D and E, respectively, in US2005/0176772 (pages 28-30).

[2] = molecular target: T1, CYP3A4 (Homo sapiens, UniProt P08684); assay: High density DDI 3 μM cocktail screen in human liver microsomes, midazolam probe; type: in vitro ADME; details: human, liver microsomes, probe midazolam, read-out: % inhibition 3A4 @ 3 μM
T1 construct: utilizes human liver microsomes together with isoform-specific clinical drug probes; from tissue; host or cells: human liver microsomes
T1 sequence (P08684 whole entry, canonical isoform): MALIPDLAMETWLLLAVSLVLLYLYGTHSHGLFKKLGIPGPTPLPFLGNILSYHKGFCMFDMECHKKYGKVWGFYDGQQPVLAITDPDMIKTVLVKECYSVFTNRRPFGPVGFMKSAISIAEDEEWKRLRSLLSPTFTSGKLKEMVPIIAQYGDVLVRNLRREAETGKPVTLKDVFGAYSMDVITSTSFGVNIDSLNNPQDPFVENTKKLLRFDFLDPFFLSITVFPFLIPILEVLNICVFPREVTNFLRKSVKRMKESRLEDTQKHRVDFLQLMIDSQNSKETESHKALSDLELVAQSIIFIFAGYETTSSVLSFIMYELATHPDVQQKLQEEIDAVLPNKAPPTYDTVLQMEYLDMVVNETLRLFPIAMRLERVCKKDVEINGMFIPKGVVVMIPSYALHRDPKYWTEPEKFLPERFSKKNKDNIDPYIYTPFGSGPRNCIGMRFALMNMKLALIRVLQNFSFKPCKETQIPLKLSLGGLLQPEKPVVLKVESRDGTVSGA
Method: High Density Drug-Drug Interactions (DDI) 3 μM Cocktail Screen
A drug interaction is a situation in which a substance affects the activity of another drug, i.e. the effects are increased or decreased, or together they produce a new effect that neither produces on its own. Drug interactions may be the result of various processes but a relatively common one is where one drug affects the pharmacokinetics of another by inhibiting the cytochrome P450 that metabolises it. Because of the importance of these phenomena, assessment of the DDI potential for new chemical entities (NCEs) is considered important early on in the drug discovery process.
The DDI cocktail screen in human liver microsomes (HLM) is run in a fully automated fashion and the aim of the screen is to provide a single-point assessment of the DDI potential of new chemical entity (NCE; tested at […]) against the 4 primary cytochrome P450 enzymes, 1A2, 2D6, 2C9 and 3A4.
The substrate cocktail approach for P450 DDI utilizes human liver microsomes together with isoform-specific clinical drug probes and permits the simultaneous measurement of the inhibition of P450 1A2, 2C9, 2D6 & 3A4 activities in a single incubation. This is run in high throughput with simultaneous detection of metabolites by LC-MS/MS. This method has been thoroughly tested and evaluated using standard compounds.
Appearance of the metabolite of each substrate is measured over time in the presence and absence of the NCE (test compound/inhibitor) at a concentration of 3 μM. The compounds are assessed for their inhibitory potential as a percentage value and interpreted using the following scheme.

[3] = In vitro metabolism rate determination, human liver microsome (HLM) assay; type: in vitro ADME; details: human, liver microsomes, read-out: HLM: Clint, app
Description: In Vitro Metabolism Rate Determination (Human Liver Microsome (HLM); Rat Liver Microsome (RLM) Assay)
Many drugs are metabolised by the cytochrome P450 mono-oxygenase system. This enzyme is found in high concentrations in the liver and is bound to the endoplasmic reticulum of the hepatocyte. The enzyme system can be obtained in semi-purified state by the preparation of the hepatic microsomal fractions. Determining a compound's in vitro half-life in such a system provides a useful indicator of metabolic stability.
Methodology for In Vitro Rate Determination Using Hepatic & Supermix Microsomes
The method outlined below is for a total incubation volume of 1.5 ml.
1. The following mixture is prepared in a test tube:
2. Defrost microsomes at room temperature and add sufficient microsomes to give a final concentration of 0.5 nmol cytochrome P450/ml of incubation e.g. for a 1.5 ml incubation, the volume of microsomes to be added is:
3. Add sufficient MilliQ water to give a total incubation volume of 1.425 ml.
6. Add substrate to the incubation. The substrate should be at an initial concentration of 1 μM. The volume of substrate required in the remaining 1.162.5 ml incubation is calculated as follows: […]
8. Pre-incubate the tube containing the incubation mix, also positive control and no cofactor tubes in the thermostatically controlled shaking water bath set at 37° C. for approx 5 min.
9. Add NADP to initiate reaction (75 μl to each 1.162.5 ml incubation mix, 12.5 μl to positive control tube and 5 μl to no substrate tube) and take first time point immediately. The PNA positive control, no cofactor control and no substrate tubes are incubated for the total incubation time.
10. Remove 100 μl aliquots up to 9 different sampling points from 0 to 60 min (usually 0, 3, 5, 10, 15, 20, 30, 45 & 60 min) and terminate reaction. Longer incubation times can be used, but, after 120 min the microsomes deteriorate. The reaction may be terminated by addition of organic solvent, acid or base. At the end of the incubation process the no cofactor and no substrate controls in a similar manner i.e. terminate with the same reagent.
11. Analyse samples (including no cofactor and no substrate control) by a specific assay for the substrate to determine the disappearance kinetics.
Data obtained using the procedure described above can be quantified in terms of the substrates in vitro intrinsic clearance (Clint). Providing that the substrate concentration is below Km, the metabolism should be 1st order giving a log-linear plot of substrate disappearance with time.
The gradient of this line is the first order rate constant (k) for the substrate disappearance and is determined by regression analysis. This rate constant can be converted to the half-life according to the following equation.
Alternatively the rate constant can be converted to an intrinsic clearance (Clint) according to the following equation:— Clint(μl/min/mg)=(k/protein concentration in incubation (mg/ml))*1000

Sequence of MC4 receptor (P32245 whole entry): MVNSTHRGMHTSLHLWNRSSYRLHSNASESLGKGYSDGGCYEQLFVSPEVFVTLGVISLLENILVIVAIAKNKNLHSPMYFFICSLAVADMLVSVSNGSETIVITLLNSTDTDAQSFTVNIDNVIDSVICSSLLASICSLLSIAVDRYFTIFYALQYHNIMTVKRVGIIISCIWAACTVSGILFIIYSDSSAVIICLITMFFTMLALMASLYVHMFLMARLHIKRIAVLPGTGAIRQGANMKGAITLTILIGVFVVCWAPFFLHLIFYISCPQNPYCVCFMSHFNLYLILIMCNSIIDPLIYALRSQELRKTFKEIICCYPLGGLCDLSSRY

| EC50 [1] | inhibition at 3 µM [2] | microsomal CLint at 1 μM [3] | SMILES |
| --- | --- | --- | --- |
| 152 nM | 24.2% | 34 µL/min/mg | CC(=O)N1CCN(C(=O)[C@@H]2CN(C(C)(C)C)C[C@H]2c2ccc(F)cc2F)CCC1c1ccc(F)cc1F (mixture of isomers) [Example 18] |
| 397 nM | – | 52 µL/min/mg | CC(C)(C)N1C[C@@H](C(=O)N2CCC(c3ccc(F)cc3F)N(S(C)(=O)=O)CC2)[C@H](c2ccc(F)cc2F)C1 (mixture of isomers) [Example 43] |
| 44.8 nM | – | 32.8 µL/min/mg | COC(=O)N1CCN(C(=O)[C@@H]2CN(C(C)(C)C)C[C@H]2c2ccc(F)cc2F)CCC1c1ccc(F)cc1F (mixture of isomers) [Example 54] |
| 54.6 nM | 56.5% | 43 µL/min/mg | CS(=O)(=O)N1CCN(C(=O)[C@@H]2CN(c3ccc(C#N)nn3)C[C@H]2c2ccc(F)cc2F)CCCC1c1ccc(F)cc1 (mixture of isomers) [Example 77] |
| 206 nM | – | 27.9 µL/min/mg | CC(=O)N1CCN(C(=O)[C@@H]2CN(C(C)(C)C)C[C@H]2c2ccc(F)cc2F)CCC1c1ccc(Cl)cc1 (mixture of isomers) [Example 84] |
| 404 nM | 30.5% | 48.4 µL/min/mg | CC(C)(C)N1C[C@@H](C(=O)N2CCC(c3ccc(Cl)cc3)N(S(C)(=O)=O)CC2)[C@H](c2ccc(F)cc2F)C1 (mixture of isomers) [Example 85] |
| 97.2 nM | 20.3% | 29.6 µL/min/mg | COC(=O)N1CCN(C(=O)[C@@H]2CN(C(C)(C)C)C[C@H]2c2ccc(F)cc2F)CCC1c1ccc(Cl)cc1 (mixture of isomers) [Example 86] |
| 64.8 nM | 41% | 62.6 µL/min/mg | CCC(=O)N1CCN(C(=O)[C@@H]2CN(C(C)(C)C)C[C@H]2c2ccc(Cl)cn2)CCC[C@H]1c1ccc(Cl)cc1 [Example 19] |
| – | 35.1% | – | CC(=O)N1CCN(C(=O)C2CN(c3ccc(C#N)nn3)C[C@H]2c2ccc(F)cc2F)CCC[C@H]1c1ccc(Cl)cc1 (stereo partly shown) [Example 21] |
| 9.42 nM | – | – | CC(=O)N1CCN(C(=O)[C@@H]2CN(c3ccc(C#N)nn3)C[C@H]2c2ccc(F)cc2F)CCC[C@H]1c1ccc(Cl)cc1 [Example 21] |
| 5.25 nM | 59.2% | – | CC(C)C(=O)N1CCN(C(=O)[C@@H]2CN(c3ccc(C#N)nn3)C[C@H]2c2ccc(F)cc2F)CCC[C@H]1c1ccc(Cl)cc1 [Example 22] |
| 4.31 nM | 56.2% | 29.1 µL/min/mg | COc1ccc([C@@H]2CN(c3ccc(C#N)nn3)C[C@H]2C(=O)N2CCC[C@@H](c3ccc(Cl)cc3)N(C(=O)C3CC3)CC2)c(F)c1 [Example 23] |
| 2.27 nM | 43.4% | 37.3 µL/min/mg | COc1ccc([C@@H]2CN(c3ccc(C#N)nn3)C[C@H]2C(=O)N2CCC[C@@H](c3ccc(Cl)cc3)N(C(=O)C(C)C)CC2)c(F)c1 [Example 24] |
| 8.31 nM | 20.4% | 30.2 µL/min/mg | COc1ccc([C@@H]2CN(c3ccc(C#N)nn3)C[C@H]2C(=O)N2CCC[C@@H](c3ccc(Cl)cc3)N(C(=O)CC(F)(F)F)CC2)c(F)c1 [Example 26] |
| 5.02 nM | 25.7% | 20.4 µL/min/mg | COc1ccc([C@@H]2CN(c3ccc(=O)n(C)n3)C[C@H]2C(=O)N2CCC[C@@H](c3ccc(Cl)cc3)N(C(C)=O)CC2)c(F)c1 [Example 27] |
| 3.4 nM | 40.8% | 21.5 µL/min/mg | CCC(=O)N1CCN(C(=O)[C@@H]2CN(c3ccc(=O)n(C)n3)C[C@H]2c2ccc(OC)cc2F)CCC[C@H]1c1ccc(Cl)cc1 [Example 28] |
| 6.01 nM | 36.8% | 18.2 µL/min/mg | COc1ccc([C@@H]2CN(c3ccc(=O)n(C)n3)C[C@H]2C(=O)N2CCC[C@@H](c3ccc(Cl)cc3)N(C(=O)CC(F)(F)F)CC2)c(F)c1 [Example 30, 6-[(3S,4R)-3-{[5S-(4-chlorophenyl)-4-(3,3,3-trifluoropropanoyl)-1,4-diazocan-1-yl]carbonyl}-4-(2-fluoro-4-methoxyphenyl)pyrrolidin-1-yl]-2-methylpyridazin-3(2H)-one] |
| 6.63 nM | – | 14.8 µL/min/mg | CC(=O)N1CCN(C(=O)[C@@H]2CN(c3ccc(=O)n(C)n3)C[C@H]2c2ccc(F)cc2F)CCC[C@H]1c1ccc(Cl)cc1 [Example 32] |
| 3.5 nM | 45.2% | 17 µL/min/mg | CC(C)C(=O)N1CCN(C(=O)[C@@H]2CN(c3ccc(=O)n(C)n3)C[C@H]2c2ccc(F)cc2F)CCC[C@H]1c1ccc(Cl)cc1 [Example 33, 6-[(3S,4R)-3-{[5S-(4-chlorophenyl)-4-isobutyryl-1,4-diazocan-1-yl]carbonyl}-4-(2,4-difluorophenyl)pyrrolidin-1-yl]-2-methylpyridazin-3(2H)-one] |
| 3.9 nM | 69.2% | 30.9 µL/min/mg | Cn1nc(N2C[C@@H](C(=O)N3CCC[C@@H](c4ccc(Cl)cc4)N(C(=O)C4CC4)CC3)[C@H](c3ccc(F)cc3F)C2)ccc1=O [Example 34] |
| 5.29 nM | 68.3% | – | CCC(=O)N1CCN(C(=O)[C@@H]2CN(c3ccc(=O)n(C)n3)C[C@H]2c2ccc(F)cc2F)CCC[C@H]1c1ccc(Cl)cc1 [Example 35] |
| 7.67 nM | – | – | CC(=O)N1CCN(C(=O)[C@@H]2CN(c3ccc(=O)n(C)n3)C[C@H]2c2ccc(Cl)cn2)CCC[C@H]1c1ccc(Cl)cc1 [Example 36] |
| 6.9 nM | – | – | CCC(=O)N1CCN(C(=O)[C@@H]2CN(c3ccc(=O)n(C)n3)C[C@H]2c2ccc(Cl)cn2)CCC[C@H]1c1ccc(Cl)cc1 [Example 38] |
| 35.2 nM | 0% | – | CCOC(=O)N1CCN(C(=O)[C@@H]2CN(C(C)(C)C)C[C@H]2c2ccc(F)cc2F)CCC[C@H]1c1ccc(Cl)cc1 [Example 52] |
| 22.1 nM | 46.5% | – | N#Cc1ccc(N2C[C@@H](C(=O)N3CCC[C@@H](c4ccc(Cl)cc4)N(C(=O)CC(F)(F)F)CC3)[C@H](c3ccc(F)cc3F)C2)nn1 [Example 58] |
| 247 nM | – | – | CC(C)(C)N1C[C@@H](C(=O)N2CCC[C@@H](c3ccc(Cl)cc3)N(C(=O)C3N=CC=N3)CC2)[C@H](c2ccc(F)cc2F)C1 [Example 64] |
| – | 21.5% | 40.1 µL/min/mg | COC(=O)N1CCN(C(=O)C2CN(c3ccc(C#N)nn3)C[C@H]2c2ccc(OC)cc2F)CCC[C@@H]1c1ccc(Cl)cc1 (stereo partly shown) [Example 88] |
| – | 28.5% | 42.9 µL/min/mg | COC(=O)N1CCN(C(=O)C2CN(c3ccc(C#N)nn3)CC2c2ccc(OC)cc2F)CCC[C@H]1c1ccc(Cl)cc1 (stereo partly shown) [Example 89] |
